Assay results from doi:10.1101/2024.02.23.581731v1 (biorxiv, 2024).
Positions count from the first letter of the chain named.

Tests used:
Type in all cases: cell-based
h5-HT3AR [1] = biological target: T1, h5-HT3AR (Homo sapiens, UniProt P46098, R200K); test: FLIPR Blue membrane potential assay, inhibition of 5-HT response
T1 sequence (P46098 24-478 R200K): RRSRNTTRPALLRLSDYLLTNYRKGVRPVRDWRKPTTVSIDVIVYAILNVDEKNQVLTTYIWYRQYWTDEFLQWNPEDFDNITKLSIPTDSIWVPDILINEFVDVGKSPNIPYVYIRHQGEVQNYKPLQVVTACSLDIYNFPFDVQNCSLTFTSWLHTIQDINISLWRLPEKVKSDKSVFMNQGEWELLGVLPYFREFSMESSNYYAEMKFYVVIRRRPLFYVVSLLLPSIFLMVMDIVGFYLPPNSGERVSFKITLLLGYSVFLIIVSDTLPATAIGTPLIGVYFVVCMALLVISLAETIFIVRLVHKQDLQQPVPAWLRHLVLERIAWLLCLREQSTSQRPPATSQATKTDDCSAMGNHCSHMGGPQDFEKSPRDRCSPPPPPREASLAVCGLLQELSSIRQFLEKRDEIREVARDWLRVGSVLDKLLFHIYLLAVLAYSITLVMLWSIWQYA

h5-HT3AR [2] = biological target: T2, h5-HT3AR (Homo sapiens, UniProt P46098); test: as above
T2 sequence (P46098 24-478): T1 sequence (P46098 24-478 R200K) with K177R

h5-HT3AR [3] = biological target: T3, h5-HT3AR (Homo sapiens, UniProt P46098, Y228S); test: as above
T3 sequence (P46098 24-478 Y228S): T1 sequence (P46098 24-478 R200K) with K177R, Y205S

h5-HT3AR [4] = biological target: T2, h5-HT3AR; test: TEVC, Xenopus oocytes, activation
r5-HT3AR = biological target: T4, r5-HT3AR (Rattus norvegicus, UniProt P35563); test: FLIPR Blue membrane potential assay, inhibition of 5-HT response
T4 sequence (P35563 24-483): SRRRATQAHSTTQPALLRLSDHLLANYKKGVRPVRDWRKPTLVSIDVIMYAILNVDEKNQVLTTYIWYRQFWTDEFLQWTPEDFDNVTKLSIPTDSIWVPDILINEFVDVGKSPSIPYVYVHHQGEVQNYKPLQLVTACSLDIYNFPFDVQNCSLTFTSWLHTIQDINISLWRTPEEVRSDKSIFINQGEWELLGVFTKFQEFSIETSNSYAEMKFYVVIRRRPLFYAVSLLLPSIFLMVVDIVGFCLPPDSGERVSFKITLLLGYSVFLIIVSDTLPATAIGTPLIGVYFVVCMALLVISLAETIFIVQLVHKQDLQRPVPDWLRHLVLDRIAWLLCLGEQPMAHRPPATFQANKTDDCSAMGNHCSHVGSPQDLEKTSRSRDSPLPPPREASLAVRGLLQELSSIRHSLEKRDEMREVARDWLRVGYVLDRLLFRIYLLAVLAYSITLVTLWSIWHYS

h5-HT3AR [5] = biological target: T5, h5-HT3AR (Homo sapiens, UniProt P46098, M223D); test: as above
T5 sequence (P46098 24-478 M223D): T1 sequence (P46098 24-478 R200K) with K177R, M200D

IC50 (h5-HT3AR [1]): 94 nM | IC50 (h5-HT3AR [2]): 20 nM | IC50 (h5-HT3AR [3]): 84 nM | EC50 (h5-HT3AR [4]): 150 nM | IC50 (r5-HT3AR): 26 nM | IC50 (h5-HT3AR [5]): 375 nM
SMILES: Cc1ccc(Sc2ccccc2N2CCNCC2)c(C)c1 [vortioxetine]
